Experimental data as given in patent US12213501B2, “Methods for modifying high intensity sweetener glycosides” (Optibiotix Limited, priority 2018, dated 2025).
Marks after values point to notes of the source that are not given here.

Columns and labels:
[1] = reported; cited from earlier work
[2] = Initial tasting against sucrose standards; type: in vivo; settings: all samples at 0.32 g/L, compared with Steviol glycosides
Method: For the initial tasting sucrose standards were prepared at 4, 6, 8 and 10% (w/v) sucrose. Aiming for 8% sucrose equivalence all HIS and enzyme modified samples were also prepared at 0.32 g/L. From the initial tasting it had been concluded that the sucrose standard range needed to be reduced to 2, 4, 6 and 8% as the 10% sample was too extreme.

trained sensory panel = test: Sensory profiling (QDA) of sweetener samples by trained sensory panel; type: in vivo, human; settings: for Sweet Taste Intensity: Table 3, concentration printed 0.032 g/L (steviol glycosides samples) or 0.024 g/L (others); for ES (equivalent sucrose concentration): from mean sweetness rating via Sweetness=15.5 (sucrose)-22.5; for ES (equivalent sucrose concentration) / Potency: concentration 0.032 or 0.024 g/L; for Bitter Taste / Cardboard/Stale Flavour / Cooked sugar flavour / Cooling Sensation / Crusty Bread Flavour / Liquorice Flavour / Metallic / Overall Strength of Off Taste/Flavour / Perfume Flavour / Salty Taste / Sour Taste / Sweet Taste / Bitter Aftertaste / Cooling Aftereffect / Liquorice Aftereffect / Sweet Aftertaste: mean rating, line scale 0-100, Stevia samples 0.32 g/L, Reb and Mogroside samples 0.24 g/L water; for Bitter Aftertaste / Cooling Aftereffect / Liquorice Aftereffect / Sweet Aftertaste: scored after 30 second delay; for Potency: sweet potency relative to sucrose; for liquorice flavour compared between sweeteners: unmodified sweeteners; for Mean Rating (0-100): sweetness as agreed by the panel
[3] = Reported bitterness of steviol glycosides and sucrose equivalence (literature); type: in vivo, human
Source text: Often sweeteners are compared to sucrose at 8% sucrose equivalent (Prakash, G. E. DuBois, J. F. Clos, K. L. Wilkens, L. E. Fosdick. (2008). Development of rebiana, a natural, non-caloric sweetener. Food and Chemical Toxicology. Volume 46, Issue 7, Pages S75-S82. Previous literature (Caroline Hellfritsch, Anne Brockhoff, Frauke Stähler, Wolfgang Meyerhof, and Thomas Hofmann (2012). Human Psychometric and Taste Receptor Responses to Steviol Glycosides. Journal of Agricultural and Food Chemistry 2012 60 (27), 6782-6793) has shown bitterness of steviol glycosides to be most obvious at around 1000 μM which for Rebaudioside A would be 0.97 g/L, equivalent to 24% sucrose. However, solutions of 100 μM are also bitter which for Rebaudioside A would be 0.097 g/L, equivalent to 2.4% sucrose. Therefore, it was decided to test solutions at equivalent sweetness levels above 2% sucrose to ensure that both sweetness and bitterness could be evaluated in levels applicable to final application.

[4] = modified high intensity sweetener compared to un-modified

Row | SMILES | sweet potency relative to sucrose [1] [×] | sweetness in initial tasting [2] | effect of enzyme modification on sweetness (trained sensory panel; CGTase modified vs unmodified) | Sweet Taste Intensity (trained sensory panel) | ES (equivalent sucrose concentration) (trained sensory panel) [%] | Bitter Taste (trained sensory panel) | Cardboard/Stale Flavour (trained sensory panel) | Cooked sugar flavour (trained sensory panel) | Cooling Sensation (trained sensory panel) | Crusty Bread Flavour (trained sensory panel) | Liquorice Flavour (trained sensory panel) | Metallic (trained sensory panel) | Overall Strength of Off Taste/Flavour (trained sensory panel) | Perfume Flavour (trained sensory panel) | Salty Taste (trained sensory panel) | Sour Taste (trained sensory panel) | Sweet Taste (trained sensory panel) | Bitter Aftertaste (trained sensory panel) | Cooling Aftereffect (trained sensory panel) | Liquorice Aftereffect (trained sensory panel) | also measured
1 | C[C@H](CC[C@@H](O[C@@H]1O[C@H](CO[C@@H]2O[C@H](CO)[C@@H](O)[C@H](O)[C@H]2O)[C@@H](O)[C@H](O)[C@H]1O[C@@H]1O[C@H](CO)[C@@H](O)[C@H](O)[C@H]1O)C(C)(C)O)[C@H]1CC[C@@]2(C)[C@@H]3CC=C4[C@@H](CC[C@H](O[C@@H]5O[C@H](CO[C@@H]6O[C@H](CO)[C@@H](O)[C@H](O)[C@H]6O)[C@@H](O)[C@H](O)[C@H]5O)C4(C)C)[C@]3(C)[C@H](O)C[C@]12C [Mogroside, Mogroside V] | ~400 | considered sweeter than the Steviol glycosides | reduced the sweetness | 47.3 | 4.5 | 7.3^c | 0.7^c | 3.2^ab | 2.6^ab | 3.3^a | 21.4^a | 3.4^b | 25.6^cd | 0.3^a | 0.8^a | 1.2^b | 47.3^b | 4.6^c | 1.6^ab | 10.8^bc | effect of enzymatic modification on liquorice flavour (trained sensory panel; CGTase modified vs unmodified): significantly reduced; Sweet Aftertaste (trained sensory panel): 28.2^b; Bitter taste: reduction % (trained sensory panel; [4]): 0%; Bitter taste: reduction ratio (trained sensory panel; [4]): 0; Liquorice taste: reduction % (trained sensory panel; [4]): 41%; Liquorice taste: reduction ratio (trained sensory panel; [4]): 1.7; Metallic: reduction % (trained sensory panel; [4]): 67%; Metallic: reduction ratio (trained sensory panel; [4]): 3; Potency (trained sensory panel): 188; liquorice flavour compared between sweeteners (trained sensory panel): equivalent in liquorice flavour
2 | C=C1C[C@@]23CC[C@H]4[C@@](C)(CCC[C@@]4(C)C(=O)O[C@@H]4O[C@H](CO)[C@@H](O)[C@H](O)[C@H]4O)[C@@H]2CC[C@]1(O[C@@H]1O[C@H](CO)[C@@H](O)[C@H](O[C@@H]2O[C@H](CO)[C@@H](O)[C@H](O)[C@H]2O)[C@H]1O[C@@H]1O[C@H](CO)[C@@H](O)[C@H](O)[C@H]1O)C3 [Reb, Rebaudioside A] | ~250 | considered sweeter than the Steviol glycosides | reduced the sweetness | 60.3 | 5.3 | 10.8^bc | 0.6^c | 3.9^a | 4.7^a | 0.5^bc | 24.2^a | 2.7^bc | 31.9^bc | 0.4^a | 1.6^a | 0.9^b | 60.3^a | 6.5^bc | 2.1^a | 11.6^bc | equivalent sucrose ([3]; 100 μM = 0.097 g/L): 2.4 % sucrose; equivalent sucrose ([3]; 1000 μM = 0.97 g/L): 24 % sucrose; sweetness compared between sweeteners (trained sensory panel; Rebaudioside A 0.24 g/L vs Steviol glycosides 0.32 g/L and Mogroside V 0.24 g/L): significantly more sweet; Sweet Aftertaste (trained sensory panel): 34.8^a; Potency (trained sensory panel): 223; liquorice flavour compared between sweeteners (trained sensory panel): equivalent in liquorice flavour
3 | OC[C@H]1O[C@@](CO)(O[C@H]2O[C@H](CO)[C@@H](O)[C@H](O)[C@H]2O)[C@@H](O)[C@@H]1O [Sucrose] |  |  |  |  |  |  |  |  |  |  |  |  |  |  |  |  |  |  |  |  | Mean Rating (0-100) (trained sensory panel; sucrose standard 1, 2.0 % w/v): 10; Mean Rating (0-100) (trained sensory panel; sucrose standard 2, 4.0 % w/v): 35; Mean Rating (0-100) (trained sensory panel; sucrose standard 3, 6.0 % w/v): 75; Mean Rating (0-100) (trained sensory panel; sucrose standard 4, 8.0 % w/v): 100
